This passage reports IC50 and viability, T/C results from PubChem BioAssay AID2060509 (Molecular Pharmacology Branch, DTP, NCI, 2025).

The structures appear in SMILES notation. Several values for one entry are separate records, joined by “and”; a condition that tells them apart may be missing. Equal values may be shown once. A value given as a limit tells only on which side of the number the result lay.

The test system of this assay is 485176-168-R4-J1-PDC spheroids with HUVEC/MSC, viability. Kind of assay: Anticancer human tumor 485176-168-R4-J1-PDC patient-derived pancreatic adenocarcinoma cell line growth inhibition [GQUAD]. As to conditions: for viability, T/C: stronger effect = lower value. The source says:
DNA G-quadruplex Stabilizer Agents in Combinations in Complex Spheroids
A high-throughput screen of multi-cell type tumor spheroids was designed to identify active combinations of DNA G-quadruplex stabilizer agents and targeted small molecules. Complex spheroids include a stromal component modeled by human endothelial cells (HUVEC) and fibroblasts modeled by human mesenchymal stem cells (MSCs). The concentration ranges selected for each drug and investigational agent were based upon clinically achievable concentrations if the clinical Cmax of the agent was known.
Compounds. The drugs and investigational agents: pidnarulex (CX-5461; NSC782164), APTO-253 (NSC789042), BRACO-19 (NSC847499), peposertib (NSC802822), ceralasertib (NSC780249), elimusertib (NSC800525), camonsertib (NSC841442), AZD-1390 (NSC803789), olaparib (NSC753686), talazoparib (NSC767125), ART-558 (NSC835418), sotorasib (NSC818433), MRTX-1133 (NSC836407), SN-38 (NSC673596), topotecan (NSC609699), etoposide (NSC141540), doxorubicin (NSC123127), gemcitabine (NSC613327), 5-fluorouracil (NSC19893), paclitaxel (NSC125973), vemurafenib (NSC761431), panobinostat (NSC761190), R-306465 (JNJ-16241199; NSC773264), adavosertib (NSC754352), TP-3654 (NSC805149), carboplatin (NSC241240), KSQ-4279 (NSC840948), and staurosporine (NSC755774) were obtained from the National Cancer Institute (NCI) Developmental Therapeutics Program Chemical Repository (34). The FDA-approved anticancer drug set is available from the NCI Developmental Therapeutics Program. […] The stock solutions were prepared in dimethyl sulfoxide (DMSO, Sigma-Aldrich, St. Louis, MO, cat. D2650) at 800-fold the tested concentration and stored at -70 degrees C prior to their use. All drugs and investigational agents were tested over a range starting from a high concentration at or near the clinical Cmax and decreasing in half-log increments. If the clinical Cmax for an agent had not been determined, the highest concentration tested was 10 microM.
2.3 Cell Culture. All cells were maintained in an incubator at 37 degrees C and 5% CO2 with 95% humidity. The PDC lines were cultured according to standard operating procedures established by the NCI PDMR. All PDCs were thawed and cultured in Matrigel-coated flasks prepared with a working solution of 1X Ham's F-12 nutrient mix, without supplementation (Invitrogen, cat. 11765054), 100 U/mL penicillin-streptomycin (Invitrogen, cat. 15140122), and 2.5% Matrigel (Corning Inc., cat. 354248) for the first three passages. The 857933-349-R-J2-PDC line was cultured in 6C/Colon 1B media, which includes advanced DMEM/F-12 (Thermo Fisher Scientific, cat. 12634028), 10 mM HEPES (Thermo Fisher Scientific, cat. 15630080), 1X GlutaMAX supplement (Thermo Fisher Scientific, cat. 35050061), 0.1 mg/mL primocin (InvivoGen, cat. ant-pm-2), 10% defined fetal bovine serum, heat inactivated (HyClone Laboratories Inc., cat. SH30070.03HI), 50% L-WRN conditioned media (ATCC, cat. CRL-3276), 1.25 mM N-Acetyl-L-cysteine (Sigma-Aldrich, cat. A9165), 10 mM nicotinamide (Sigma-Aldrich, cat. N0636), 1X B-27 supplement (Thermo Fisher Scientific, cat. 17504044), 1X N-2 supplement (Thermo Fisher Scientific, cat. 17502048), 10 microM Y-27632 dihydrochloride (Tocris Bioscience, cat. 1254), and 50 ng/mL human EGF recombinant protein (Thermo Fisher Scientific, cat. PHG0311). The 485176-168-R4-J1-PDC line was cultured in Panc media, which includes all 6C/Colon 1B media components plus 100 ng/mL human FGF-10 (Thermo Fisher Scientific, cat. 100-26), 500 nM SB-431542 (Selleckchem, cat. S1067), and gastrin (Tocris, cat. 3006).
[…]

[1] abbreviates: curve of first compound, second compound 0.0316 µM.
The mark [2] stands for this setting: curve of first compound, second compound 0.1 µM.
Where [3] appears, read: curve of first compound, second compound 0.316 µM.
The mark [4] stands for this setting: curve of first compound, second compound 1 µM.
Setting [5] is: curve of first compound, second compound 3.16 µM.
The mark [6] stands for this setting: curve of first compound, second compound 10 µM.
Setting [7] is: second compound 0.0316 µM, first compound 0.0316 µM.
[8] abbreviates: second compound 0.0316 µM, first compound 0.316 µM.
Setting [9] is: second compound 0.1 µM, first compound 0.0316 µM.
Where [10] appears, read: second compound 0.1 µM, first compound 0.316 µM.
Where [11] appears, read: second compound 0.316 µM, first compound 0.0316 µM.
Where [12] appears, read: second compound 0.316 µM, first compound 0.316 µM.
Setting [13] is: second compound 1 µM, first compound 0.0316 µM.
Setting [14] is: second compound 1 µM, first compound 0.316 µM.
[15] abbreviates: second compound 3.16 µM, first compound 0.0316 µM.
[16] abbreviates: second compound 3.16 µM, first compound 0.316 µM.
The mark [17] stands for this setting: second compound 10 µM, first compound 0.0316 µM.
[18] abbreviates: second compound 10 µM, first compound 0.316 µM.
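Note: spheroids exposed to compounds for seven days before readout.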
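Throughout, for viability, T/C: percent viability relative to DMSO vehicle control wells as 100%.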

On to `CCc1c2c(nc3ccc(O)cc13)-c1cc3c(c(=O)n1C2)COC(=O)[C@]3(O)CC` + Cc1cnc(CNC(=O)c2c(=O)c3ccc(N4CCCN(C)CC4)nc3n3c2sc2ccccc23)cn1, for which the IC50 – broadly, the concentration needed to halve the response being measured – runs as follows: under setting [1], 3.5 nM; under setting [2], 1.5 nM; under setting [3], 1.67 nM; under setting [4], < 0.999 nM; under setting [5], < 0.999 nM; under setting [6], < 0.999 nM. Moreover, the viability, T/C (in general, the result in the treated group divided by that in the control group, in per cent) was 79.5% (second compound 0.0316 µM, first compound 0.000999 µM); 47.6% (second compound 0.0316 µM, first compound 0.00316 µM); 36% (second compound 0.0316 µM, first compound 0.00999 µM); 19.6% under setting [7]; 12.6% (second compound 0.0316 µM, first compound 0.0999 µM); 4.96% under setting [8]. The viability, T/C reads like this: (second compound 0.1 µM, first compound 0.000999 µM) 54.7%; (second compound 0.1 µM, first compound 0.00316 µM) 42.7%; (second compound 0.1 µM, first compound 0.00999 µM) 26.6%; under setting [9], 21.9%; (second compound 0.1 µM, first compound 0.0999 µM) 11.4%; under setting [10], 4.78%. The viability, T/C reads like this: (second compound 0.316 µM, first compound 0.000999 µM) 53%; (second compound 0.316 µM, first compound 0.00316 µM) 47%; (second compound 0.316 µM, first compound 0.00999 µM) 30.9%; under setting [11], 19.5%; (second compound 0.316 µM, first compound 0.0999 µM) 10.7%; under setting [12], 5.12%. Besides, the viability, T/C (second compound 1 µM, first compound 0.000999 µM) was 40.2%; the viability, T/C (second compound 1 µM, first compound 0.00316 µM) was 38.9%; the viability, T/C (second compound 1 µM, first compound 0.00999 µM) was 33.2%; the viability, T/C under setting [13] is 20%; the viability, T/C (second compound 1 µM, first compound 0.0999 µM) was 11.9%; the viability, T/C under setting [14] was 5.51%. For the same molecule, the viability, T/C runs as follows: (second compound 3.16 µM, first compound 0.000999 µM) 42.6%; (second compound 3.16 µM, first compound 0.00316 µM) 35%; (second compound 3.16 µM, first compound 0.00999 µM) 27.3%; under setting [15], 22.1%; (second compound 3.16 µM, first compound 0.0999 µM) 11.1%; under setting [16], 6.82%. In addition, the viability, T/C is 33.8% (second compound 10 µM, first compound 0.000999 µM); 29.4% (second compound 10 µM, first compound 0.00316 µM); 25.1% (second compound 10 µM, first compound 0.00999 µM); 19.9% under setting [17]; 5.56% (second compound 10 µM, first compound 0.0999 µM); 0.25% under setting [18].
As for `Cn1ncnc1[C@H]1c2n[nH]c(=O)c3cc(F)cc(c23)N[C@@H]1c1ccc(F)cc1`, the viability, T/C by setting is: (compound 0.000999 µM) 99.2% (2×) and 86.5%; (compound 0.00316 µM) 95.2% and 94% and 85.8%; (compound 0.00999 µM) 96.4% and 108% and 91.5%; (compound 0.0316 µM) 98.8% and 101% and 88.8%; (compound 0.0999 µM) 91.2% and 91.7% and 89.7%; (compound 0.316 µM) 75.9% and 98.5% and 85.9%. For the setting “curve of compound”, the IC50 is > 316 nM.
Regarding `CC(C)(O)C1CCC(Nc2ccc3ncc(-c4cccc(C(F)(F)F)c4)n3n2)CC1` (stereo not given) + Cc1[nH]c2ccc(F)cc2c1-c1nc2c3cccnc3c3ncccc3c2[nH]1, the IC50 under setting [1] is > 10000 nM; the IC50 under setting [2] is > 10000 nM; the IC50 under setting [3] was determined as 8530 nM; the IC50 under setting [4] was 2590 nM; the IC50 under setting [5] is 2760 nM; the IC50 under setting [6] was 2560 nM. Also, the viability, T/C by setting is: under setting [7], 80.2%; (second compound 0.0316 µM, first compound 0.1 µM) 110%; under setting [8], 84.5%; (second compound 0.0316 µM, first compound 1 µM) 81.3%; (second compound 0.0316 µM, first compound 3.16 µM) 57.7%; (second compound 0.0316 µM, first compound 10 µM) 54.7%. The viability, T/C was 93.2% under setting [9]; 89.3% (second compound 0.1 µM, first compound 0.1 µM); 86.8% under setting [10]; 88.4% (second compound 0.1 µM, first compound 1 µM); 61% (second compound 0.1 µM, first compound 3.16 µM); 59.9% (second compound 0.1 µM, first compound 10 µM). Besides, the viability, T/C by setting is: under setting [11], 93.6%; (second compound 0.316 µM, first compound 0.1 µM) 100%; under setting [12], 86.8%; (second compound 0.316 µM, first compound 1 µM) 82.3%; (second compound 0.316 µM, first compound 3.16 µM) 58%; (second compound 0.316 µM, first compound 10 µM) 49.1%. Further, the viability, T/C was 82.9% under setting [13]; 93.1% (second compound 1 µM, first compound 0.1 µM); 108% under setting [14]; 77.6% (second compound 1 µM, first compound 1 µM); 47.3% (second compound 1 µM, first compound 3.16 µM); 40.5% (second compound 1 µM, first compound 10 µM). For the same molecule, the viability, T/C by setting is: under setting [15], 76.9%; (second compound 3.16 µM, first compound 0.1 µM) 83.7%; under setting [16], 88.6%; (second compound 3.16 µM, first compound 1 µM) 78.6%; (second compound 3.16 µM, first compound 3.16 µM) 46.2%; (second compound 3.16 µM, first compound 10 µM) 33.1%. The viability, T/C by setting is: under setting [17], 92%; (second compound 10 µM, first compound 0.1 µM) 55.6%; under setting [18], 70.3%; (second compound 10 µM, first compound 1 µM) 75.3%; (second compound 10 µM, first compound 3.16 µM) 40.3%; (second compound 10 µM, first compound 10 µM) 29.5%.
As to `O=c1[nH]cc(F)c(=O)[nH]1`, the viability, T/C was 95.9% and 97.3% and 84.9% (compound 0.0316 µM); 85.5% and 91% and 89.7% (compound 0.1 µM); 79.7% and 75.4% and 64% (compound 0.316 µM); 56.6% and 60.5% and 59.2% (compound 1 µM); 48.2% and 46.2% and 45.4% (compound 3.16 µM); 46.8% and 46.7% and 54.9% (compound 10 µM). In addition, for the setting “curve of compound”, the IC50 is 2610 nM and 2750 nM and > 10000 nM.
Consider `CCc1c2c(nc3ccc(O)cc13)-c1cc3c(c(=O)n1C2)COC(=O)[C@]3(O)CC`, for which the viability, T/C reads like this: (compound 0.000999 µM) 70.1% and 80.1% and 81.3%; (compound 0.00316 µM) 44.8% and 56.4% and 56%; (compound 0.00999 µM) 36% and 50.5% and 37.6%; (compound 0.0316 µM) 25.5% and 22.1% and 19.9%; (compound 0.0999 µM) 14.2% and 11.4% and 13.2%; (compound 0.316 µM) 5.64% and 4.31% and 3.94%. Further, where the note is “curve of compound”, the half-maximal inhibitory concentration (IC50) was 3.08 nM and 6.61 nM and 4.61 nM.
